# According to patent US20110231103A1, “METHODS FOR DETERMINING MOLECULAR PHARMACOLOGY USING LABEL-FREE INTEGRATIVE PHARMACOLOGY” (priority 2010, published 2011):
# Legend:
# [1] = tested on: 15 marker/4 cell line panel (A549, A431, HT29, HepG2 cells); assay: Biosensor modulation indices against a 15 marker/4 cell line panel, Hierarchical Euclidean cluster analysis; format: cell-based; details: 15 markers at EC100 in A549, A431, HT29, HepG2 cells; library of ~2000 compounds
# Procedure: (§1) Cells were typically grown using ˜1 to 2×10^4 cells per well at passage 3 to 15 suspended in 50 μl of the corresponding culture medium in the biosensor microplate, and were cultured at 37° C. under air/5% CO2 for ˜1 day. Except for A431 cells which underwent one day (at least 14 hours) culture followed by one day (at least 14 hours) starvation in serum free medium, all other cells were directly assayed without starvation. The confluency for all cells at the time of assays was ˜95% to 100%.
# (§2) For biosensor cellular assays, molecule solutions were made by diluting the stored concentrated solutions with the HBSS (1× Hanks balanced salt solution, plus 20 mM Hepes, pH 7.1), and transferred into a 384well polypropylene molecule storage plate to prepare a molecule source plate. Both molecule and marker source plates were made separately when a two-step assay was performed. In parallel, the cells were washed twice with the HBSS and maintained in 30 μl of the HBSS to prepare a cell assay plate. Both the cell assay plate and the molecule and marker source plate(s) were then incubated in the hotel of the reader system. After ˜1 hr of incubation the baseline wavelengths of all biosensors in the cell assay microplate were recorded and normalized to zero. Afterwards, a 2 to 10 minute continuous recording was carried out to establish a baseline, and to ensure that the cells reached a steady state. Cellular responses were then triggered by pipetting 10 μl of the marker solutions into the cell assay plate using the on-board liquid handler.
# To study the influence of molecules on a marker-induced response, a second stimulation with the marker at a fixed dose (typically at EC80 or EC 100) was applied. The resonant wavelengths of all biosensors in the microplate were normalized again to establish a second baseline, right before the second stimulation. The two stimulations were usually separated by ˜1 hr.
# To further explore the potential of cluster analysis for label-free integrative pharmacology, a library of ˜2000 compounds were subject to label-free integrative pharmacology analysis against a 15 marker/4 cell line panel. The cell/marker panel consists of the A549 cell (the mitochondria KATP opener pinacidil, the TLR3 agonist poly(I:C), the protein kinase C activator PMA, the adenylate cyclase activator forskolin, the PAR2 agonist SLIGKV, and the histamine H1 receptor agonist histamine), A431 cells (the β2AR agonist epinephrine, the EGFR agonist EGF, the GPR109A agonist nicotinic acid, and the histamine H1 receptor agonist histamine), HT29 cells (the EGFR/HER2 agonist EGF, the neurotensin receptor NTS1/NTS3 agonist neurotensin, the IGF1 receptor IGF1, and the hERG activator mallotoxin), and the HepG2 cell (the TL9 agonist ODN2006). All molecules in the library were screened in four cell lines to produce a library of biosensor primary indices. In addition, all molecules in the library were also screened in the four cell lines against each respective marker at EC100 to produce a library of biosensor modulation indices. The modulation indices were generated by normalizing the marker DMR signal in the presence of a molecule to the marker DMR in the absence of a molecule. For each marker, one or two specific DMR events were used for normalization. For A549 cells, it is pinacidil (the N-DMR at 30 min; pinacidil), Poly(I:C) (the P-DMR at 50 min, poly(I:C)), PMA (the P-DMR at 50 min, PMA), SLIGKV (the P-DMR at 20 min, SLIGKV), forskolin (the P-DMR at 50 min, Forskolin), Histamine (the P-DMR at 10 min, His1; the P-DMR at 30 min, His2) (the bolded name was indicated in FIG. 6, the same is for the below). For A431 cells, it is epinephrine (the P-DMR at 50 min, Epi), nicotinic acid (the N-DMR at 3 min, NA), EGF (the P-DMR at 5 min, EGF1; the N-DMR at 40 min, EGF2), and histamine (the P-DMR at 3 min, His3).
# β2-AR = biological target: T1, β2-AR (Homo sapiens, UniProt P07550); assay: DMR assays of a panel of β2-AR ligands in quiescent A431 cells, multi-parameter and cluster analysis; format: cell-based; details: for heat map classification of β2-AR agonist pharmacology based on DMR parameters: DMR parameters normalized to the epinephrine response; for saturating concentration for the DMR signal: FIG. 7
# T1 construct: All of these receptors were endogenously expressed in A431 cells, as confirmed by quantitative RT-PCR; endogenous in cells; host or cells: quiescent (serum-starved) A431 cells
# Procedure: as §1, §2
# Label-free receptor assays allow a greater array of changes in the receptor to be detected. […] The heat map was generated using the Euclidean hierarchical cluster analysis, after all DMR parameters were normalized to the epinephrine response.
# A431 cells = assay: DMR primary profiles of known GPCR agonists in A431 cells (receptor panning, cluster analysis); format: cell-based, human; details: each agonist at 10 micromolar, max-min of 40 picometer cutoff
# Procedure: as §1
# An Epic® beta version wavelength interrogation system (Corning Inc., Corning, N.Y.) was used for whole cell sensing. This system consists of a temperature-control unit, an optical detection unit, and an on-board liquid handling unit with robotics. The detection unit is centered on integrated fiber optics, and enables kinetic measures of cellular responses with a time interval of ˜15 sec.
# as §2
# All studies were carried out at a controlled temperature (28° C.). At least two independent sets of experiments, each with at least three replicates, were performed. […] A typical DMR signal of cells, as measured using Epic system, is a real time kinetic response which consists a baseline pre-stimulation (often normalized to zero), and a cellular response post stimulation.
# To pan endogenous G protein-coupled receptors (GPCRs) that are functional in label-free biosensor cellular assays, a library of known GPCR agonists was made. A431 cells were grown to monolayer on the Epic® 384well biosensor cell culture compatible microplates and subject to overnight starvation. After replacing the cell medium with 1×HBSS buffer and reaching equilibrium within the Epic® system, the cells were stimulated with known GPCR agonists, each at 10 micromolar. The known adenylate cyclase activator forskolin was also included as a positive control for the cAMP-PKA pathway.
# Pattern recognition and pattern matching can be used to visualize their relations. However, when the numbers of molecule biosensor primary profiles increase dramatically, it becomes more difficult to use conventional pattern recognition methods, such as supervised learning, to study the relations of the molecule primary indices. Clustering analysis has been widely and successfully used in gene expression and protein network analysis which often deals with large datasets. Thus, clustering analysis and its parameters were identified herein to categorize the molecule primary indices. Both Hierarchical and k-Means clustering methods were examined. […] Here a max-min of 40 picometer was used as a cutoff to filter the original data. This heat map was generated using the real responses of each GPCR agonist at a 1-min time interval post stimulation.
# T1 sequence (P07550 whole entry): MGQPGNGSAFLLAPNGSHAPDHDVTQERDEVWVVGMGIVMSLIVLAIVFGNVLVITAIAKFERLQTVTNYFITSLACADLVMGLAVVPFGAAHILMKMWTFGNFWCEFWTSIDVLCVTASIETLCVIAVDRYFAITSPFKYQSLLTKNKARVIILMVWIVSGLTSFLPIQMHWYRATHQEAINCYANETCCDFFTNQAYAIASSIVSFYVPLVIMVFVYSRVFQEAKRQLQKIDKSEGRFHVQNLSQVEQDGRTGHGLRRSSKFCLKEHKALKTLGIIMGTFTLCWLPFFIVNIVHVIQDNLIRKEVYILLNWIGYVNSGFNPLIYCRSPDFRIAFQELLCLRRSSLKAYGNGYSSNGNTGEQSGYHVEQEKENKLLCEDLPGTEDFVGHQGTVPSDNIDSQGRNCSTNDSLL
SMILES,node cluster by biosensor modulation index (similarity to known anti-histamines) [1],heat map classification of β2-AR agonist pharmacology based on DMR parameters (β2-AR),"cluster of the agonist-induced primary DMR signal (two dimensional Hierarchical clustering, heat map) (A431 cells)",further results
C[C@@H]1CN([C@H]2CC[C@](C#N)(c3ccc(F)cc3)CC2)CC[C@]1(C(=O)O)c1ccccc1 [levocabastine],specific node cluster that consists of 8 compounds,–,–,–
CC(C)NCC(O)COc1cccc2[nH]ccc12 (centres unmarked) [pindolol],–,beta-blockers with weak partial agonism activity,–,–
Oc1ccccc1O [catechol],–,between the second and third group,–,amplitudes of the DMR signal (β2-AR): smaller amplitudes; kinetics for the P-DMR event (β2-AR): faster kinetics; transition time of the DMR signal (β2-AR): slightly slower transition time; saturating concentration for the DMR signal (β2-AR): 500 µM
CCNC(=O)[C@H]1O[C@@H](n2cnc3c(N)nc(NCCc4ccc(CCC(=O)O)cc4)nc32)[C@H](O)[C@@H]1O [CGS21680],–,–,belong to the same cluster,–
CN1CCC(=C2c3ccccc3CC(=O)c3sccc32)CC1 [ketotifen],specific node cluster that consists of 8 compounds,–,–,–
Fc1ccc(C(c2ccc(F)cc2)N2CCN(C/C=C/c3ccccc3)CC2)cc1 [flunarizine],specific node cluster that consists of 8 compounds,–,–,–
CN(C)CCCN1c2ccccc2Sc2ccc(Cl)cc21 [Chlorpromazine],specific node cluster that consists of 8 compounds,–,–,–
NC[C@H](O)c1ccc(O)c(O)c1 [norepinephrine],–,full agonists and strong partial agonists,–,saturating concentration for the DMR signal (β2-AR): 0.1 µM
NCCc1ccc(O)c(O)c1 [dopamine],–,partial agonists,–,saturating concentration for the DMR signal (β2-AR): 32 µM
Nc1ncnc2c1ncn2[C@@H]1O[C@H](CO)[C@@H](O)[C@H]1O [adenosine],–,–,belong to the same cluster,–
O=C(NCCNCC(O)COc1ccc(O)cc1)N1CCOCC1 (centres unmarked) [xamoterol],–,between the second and third group,–,–
Cc1nc2n(c(=O)c1CCN1CCC(c3noc4cc(F)ccc34)CC1)CCCC2 [risperidone],specific node cluster that consists of 8 compounds,–,–,–
CNC(=O)[C@H]1O[C@@H](n2cnc3c(NCc4cccc(I)c4)ncnc32)[C@H](O)[C@@H]1O [IB-MECA],–,–,belong to the same cluster,–
CNC[C@H](O)c1ccc(O)c(O)c1 [epinephrine],–,full agonists and strong partial agonists,–,amplitudes of the DMR signal (β2-AR): maximum amplitudes; kinetics for the P-DMR event (β2-AR): slow kinetics; transition time of the DMR signal (β2-AR): fast transition time; saturating concentration for the DMR signal (β2-AR): 0.008 µM
O=c1cc(N2CCNCC2)oc2c(-c3ccccc3)cccc12 [LY303511],can also be a histamine H1R or a H1R pathway antagonist,–,–,–
Nc1ncnc2c1ncn2[C@@H]1O[C@H](COP(=O)(O)OP(=O)(O)OP(=O)(O)O)[C@@H](O)[C@H]1O [ATP],–,–,belong to the same cluster,–
CNCC(O)c1ccccc1 (centres unmarked) [halostachine],–,partial agonists,–,amplitudes of the DMR signal (β2-AR): smaller amplitudes; kinetics for the P-DMR event (β2-AR): faster kinetics; transition time of the DMR signal (β2-AR): slightly slower transition time
OC[C@H]1O[C@@H](n2cnc3c(NC4CCCC4)nc(Cl)nc32)[C@H](O)[C@@H]1O [CCPA],–,–,belong to the same cluster,–
O=c1ccn([C@@H]2O[C@H](COP(=O)(O)OP(=O)(O)OP(=O)(O)O)[C@@H](O)[C@H]2O)c(=O)[nH]1 [UTP],–,–,belong to the same cluster,–
